Legend:
Assay in all cases: biochemical
Design in all cases: DiscoverX KINOMEscan scanMAX competition binding panel, single concentration, percent of control; remaining binding: dose or concentration left out as unconfirmed
Conditions in all cases: KINOMEscan binding, percent of control; read-out: Table S4_SCANMAX REPORT - related to Fig. 1 / Percent Control
PIK3CA(H1047Y) = PIK3CA(H1047Y) (Homo sapiens, UniProt P42336, H1047Y)
p38-beta = target: T1, p38-beta (Homo sapiens, UniProt Q15759)
T1 construct: gene MAPK11

SYK = SYK (Homo sapiens, UniProt P43405)
TEC = TEC (Homo sapiens, UniProt P42680)
CDK9 = CDK9 (Homo sapiens, UniProt P50750)
PIP5K2C = target: T2, PIP5K2C (Homo sapiens, UniProt Q8TBX8)
T2 construct: gene PIP4K2C

NEK9 = NEK9 (Homo sapiens, UniProt Q8TD19)
EGFR(G719S) = EGFR(G719S) (Homo sapiens, UniProt P00533, G719S)
CSF1R = CSF1R (Homo sapiens, UniProt P07333)
[1] = target: T3, RSK1(Kin.Dom.2-C-terminal) (Homo sapiens, UniProt Q15418)
T3 construct: gene RPS6KA1; Kin.Dom.2-C-terminal

CDK4-cyclinD1 = target: T4, CDK4-cyclinD1 (Homo sapiens, UniProt P11802)
T4 construct: cyclinD1

TNK2 = TNK2 (Homo sapiens, UniProt Q07912)
CDC2L1 = target: T5, CDC2L1 (Homo sapiens, UniProt P21127)
T5 construct: gene CDK11B

[2] = target: T6, RSK2(Kin.Dom.2-C-terminal) (Homo sapiens, UniProt P51812)
T6 construct: gene RPS6KA3; Kin.Dom.2-C-terminal

ERBB4 = ERBB4 (Homo sapiens, UniProt Q15303)
NEK2 = NEK2 (Homo sapiens, UniProt P51955)
[3] = target: T7, TYK2(JH2domain-pseudokinase) (Homo sapiens, UniProt P29597)
T7 construct: JH2domain-pseudokinase

NEK7 = NEK7 (Homo sapiens, UniProt Q8TDX7)

T5 sequence (P21127 whole entry): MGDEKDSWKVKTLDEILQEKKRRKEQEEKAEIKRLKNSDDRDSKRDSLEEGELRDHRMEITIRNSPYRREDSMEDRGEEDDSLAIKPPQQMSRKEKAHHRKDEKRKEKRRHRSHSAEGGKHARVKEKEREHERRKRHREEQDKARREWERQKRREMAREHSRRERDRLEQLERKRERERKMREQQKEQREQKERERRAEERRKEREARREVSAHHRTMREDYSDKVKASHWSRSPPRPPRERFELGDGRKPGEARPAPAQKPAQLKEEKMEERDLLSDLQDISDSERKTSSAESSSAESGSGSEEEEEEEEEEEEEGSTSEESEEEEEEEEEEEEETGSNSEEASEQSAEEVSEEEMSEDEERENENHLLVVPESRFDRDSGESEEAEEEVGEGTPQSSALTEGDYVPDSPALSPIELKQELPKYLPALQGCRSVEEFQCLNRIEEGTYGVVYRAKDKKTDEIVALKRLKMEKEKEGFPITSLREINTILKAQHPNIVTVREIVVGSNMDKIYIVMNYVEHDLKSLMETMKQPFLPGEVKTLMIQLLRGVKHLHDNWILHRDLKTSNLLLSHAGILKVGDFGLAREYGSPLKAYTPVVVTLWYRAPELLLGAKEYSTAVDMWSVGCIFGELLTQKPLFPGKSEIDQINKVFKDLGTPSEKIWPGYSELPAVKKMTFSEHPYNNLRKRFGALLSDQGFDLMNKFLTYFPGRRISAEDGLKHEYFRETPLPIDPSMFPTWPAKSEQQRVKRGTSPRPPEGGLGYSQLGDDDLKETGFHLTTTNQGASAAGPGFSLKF
T6 sequence (P51812 whole entry): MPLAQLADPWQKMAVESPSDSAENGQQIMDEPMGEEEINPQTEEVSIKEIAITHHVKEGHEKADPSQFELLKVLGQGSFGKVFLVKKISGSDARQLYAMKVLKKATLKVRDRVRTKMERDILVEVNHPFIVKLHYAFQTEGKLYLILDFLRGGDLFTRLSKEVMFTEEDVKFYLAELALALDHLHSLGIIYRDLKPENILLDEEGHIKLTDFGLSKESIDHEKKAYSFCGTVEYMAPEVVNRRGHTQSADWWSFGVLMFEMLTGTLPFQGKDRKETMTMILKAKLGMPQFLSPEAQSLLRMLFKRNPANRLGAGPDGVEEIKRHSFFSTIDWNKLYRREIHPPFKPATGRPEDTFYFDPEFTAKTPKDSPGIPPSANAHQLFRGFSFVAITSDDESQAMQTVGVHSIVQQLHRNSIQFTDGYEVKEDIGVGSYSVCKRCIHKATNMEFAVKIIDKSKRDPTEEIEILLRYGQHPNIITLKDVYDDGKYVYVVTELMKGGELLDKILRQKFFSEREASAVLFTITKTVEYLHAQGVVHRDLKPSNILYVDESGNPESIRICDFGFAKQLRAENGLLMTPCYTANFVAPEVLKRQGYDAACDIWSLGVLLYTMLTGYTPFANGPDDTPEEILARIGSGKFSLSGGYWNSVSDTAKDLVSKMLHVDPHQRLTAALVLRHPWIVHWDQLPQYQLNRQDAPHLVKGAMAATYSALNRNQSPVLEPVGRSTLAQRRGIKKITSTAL
Sequence of PIK3CA(H1047Y) (P42336 whole entry H1047Y): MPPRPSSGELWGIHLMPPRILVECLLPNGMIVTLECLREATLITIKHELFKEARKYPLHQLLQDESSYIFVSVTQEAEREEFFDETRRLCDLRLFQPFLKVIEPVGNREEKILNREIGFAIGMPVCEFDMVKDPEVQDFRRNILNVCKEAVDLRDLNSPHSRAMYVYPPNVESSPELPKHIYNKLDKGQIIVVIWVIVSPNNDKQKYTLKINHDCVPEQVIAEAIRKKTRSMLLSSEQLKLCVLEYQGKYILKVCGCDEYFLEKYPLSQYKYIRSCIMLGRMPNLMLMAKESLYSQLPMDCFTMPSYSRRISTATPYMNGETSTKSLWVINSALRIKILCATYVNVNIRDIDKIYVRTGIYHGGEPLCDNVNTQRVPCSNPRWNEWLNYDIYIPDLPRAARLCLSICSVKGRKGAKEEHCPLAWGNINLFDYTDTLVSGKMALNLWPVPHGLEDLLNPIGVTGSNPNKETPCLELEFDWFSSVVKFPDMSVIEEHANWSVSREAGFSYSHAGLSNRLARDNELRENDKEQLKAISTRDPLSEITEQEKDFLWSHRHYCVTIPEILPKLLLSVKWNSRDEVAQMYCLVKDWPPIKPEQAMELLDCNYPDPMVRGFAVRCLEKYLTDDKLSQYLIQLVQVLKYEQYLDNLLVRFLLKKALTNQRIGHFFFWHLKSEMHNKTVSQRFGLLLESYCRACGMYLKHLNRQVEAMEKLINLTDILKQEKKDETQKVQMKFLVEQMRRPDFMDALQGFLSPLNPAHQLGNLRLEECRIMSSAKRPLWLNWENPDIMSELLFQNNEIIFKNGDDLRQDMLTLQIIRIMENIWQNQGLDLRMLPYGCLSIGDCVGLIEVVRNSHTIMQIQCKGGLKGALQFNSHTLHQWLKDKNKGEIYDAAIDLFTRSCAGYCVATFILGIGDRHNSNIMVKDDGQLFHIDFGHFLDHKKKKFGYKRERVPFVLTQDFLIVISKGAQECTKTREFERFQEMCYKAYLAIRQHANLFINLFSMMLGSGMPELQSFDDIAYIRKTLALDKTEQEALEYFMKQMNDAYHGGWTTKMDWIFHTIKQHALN
T2 sequence (Q8TBX8 whole entry): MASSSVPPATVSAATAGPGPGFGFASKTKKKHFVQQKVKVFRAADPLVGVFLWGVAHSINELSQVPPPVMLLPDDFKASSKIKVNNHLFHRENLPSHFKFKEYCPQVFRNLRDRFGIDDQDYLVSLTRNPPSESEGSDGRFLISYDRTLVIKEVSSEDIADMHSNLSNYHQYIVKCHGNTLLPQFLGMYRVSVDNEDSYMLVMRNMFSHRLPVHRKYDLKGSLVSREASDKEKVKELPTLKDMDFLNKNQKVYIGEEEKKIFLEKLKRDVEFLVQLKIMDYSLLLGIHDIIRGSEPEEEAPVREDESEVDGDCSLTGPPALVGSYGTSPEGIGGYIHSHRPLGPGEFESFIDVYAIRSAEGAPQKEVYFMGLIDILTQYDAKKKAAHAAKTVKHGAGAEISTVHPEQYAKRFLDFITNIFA
Sequence of ERBB4 (Q15303 whole entry): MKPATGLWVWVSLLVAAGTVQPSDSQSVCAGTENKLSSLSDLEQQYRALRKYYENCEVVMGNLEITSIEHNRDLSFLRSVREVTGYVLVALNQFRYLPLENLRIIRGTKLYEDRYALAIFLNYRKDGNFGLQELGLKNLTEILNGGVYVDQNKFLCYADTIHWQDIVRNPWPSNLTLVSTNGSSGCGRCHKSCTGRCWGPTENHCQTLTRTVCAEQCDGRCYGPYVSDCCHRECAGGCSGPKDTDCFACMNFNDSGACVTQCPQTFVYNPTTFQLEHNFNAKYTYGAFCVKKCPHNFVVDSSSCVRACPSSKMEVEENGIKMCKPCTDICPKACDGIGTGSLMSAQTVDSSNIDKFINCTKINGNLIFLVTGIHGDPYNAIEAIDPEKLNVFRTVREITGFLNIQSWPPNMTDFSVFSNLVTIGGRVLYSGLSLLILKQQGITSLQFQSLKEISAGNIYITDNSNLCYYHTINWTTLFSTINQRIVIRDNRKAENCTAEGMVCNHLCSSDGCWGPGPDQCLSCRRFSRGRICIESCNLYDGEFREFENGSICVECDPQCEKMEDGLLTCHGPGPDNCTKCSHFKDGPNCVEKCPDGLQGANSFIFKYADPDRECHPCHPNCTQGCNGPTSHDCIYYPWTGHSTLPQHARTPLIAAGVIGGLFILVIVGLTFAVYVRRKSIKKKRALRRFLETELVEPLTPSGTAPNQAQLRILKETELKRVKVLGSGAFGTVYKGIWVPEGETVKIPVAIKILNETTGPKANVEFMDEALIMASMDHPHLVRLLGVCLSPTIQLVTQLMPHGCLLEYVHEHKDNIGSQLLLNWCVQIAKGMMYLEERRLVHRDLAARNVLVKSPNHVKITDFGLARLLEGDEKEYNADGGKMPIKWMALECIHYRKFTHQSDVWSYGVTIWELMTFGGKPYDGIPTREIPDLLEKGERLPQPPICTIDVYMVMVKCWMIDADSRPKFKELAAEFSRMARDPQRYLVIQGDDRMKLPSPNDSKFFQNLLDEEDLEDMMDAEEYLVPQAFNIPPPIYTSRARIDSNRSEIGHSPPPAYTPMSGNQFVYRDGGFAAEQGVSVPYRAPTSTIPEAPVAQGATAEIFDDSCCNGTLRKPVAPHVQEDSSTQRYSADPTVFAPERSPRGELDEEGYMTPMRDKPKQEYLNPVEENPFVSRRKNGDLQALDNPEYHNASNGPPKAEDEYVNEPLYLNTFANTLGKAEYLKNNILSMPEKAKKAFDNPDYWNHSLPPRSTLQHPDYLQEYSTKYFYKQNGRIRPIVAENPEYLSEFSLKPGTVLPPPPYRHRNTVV
T4 sequence (P11802 whole entry): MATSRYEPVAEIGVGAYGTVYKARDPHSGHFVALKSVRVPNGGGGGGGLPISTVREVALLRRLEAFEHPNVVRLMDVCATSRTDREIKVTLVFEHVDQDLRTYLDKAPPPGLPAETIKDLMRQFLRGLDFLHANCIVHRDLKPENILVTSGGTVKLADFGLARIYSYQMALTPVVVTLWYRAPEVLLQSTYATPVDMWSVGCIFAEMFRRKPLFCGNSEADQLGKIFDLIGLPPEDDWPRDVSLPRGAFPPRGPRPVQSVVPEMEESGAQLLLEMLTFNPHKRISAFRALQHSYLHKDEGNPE
T4 sequence (P24385 whole entry partner): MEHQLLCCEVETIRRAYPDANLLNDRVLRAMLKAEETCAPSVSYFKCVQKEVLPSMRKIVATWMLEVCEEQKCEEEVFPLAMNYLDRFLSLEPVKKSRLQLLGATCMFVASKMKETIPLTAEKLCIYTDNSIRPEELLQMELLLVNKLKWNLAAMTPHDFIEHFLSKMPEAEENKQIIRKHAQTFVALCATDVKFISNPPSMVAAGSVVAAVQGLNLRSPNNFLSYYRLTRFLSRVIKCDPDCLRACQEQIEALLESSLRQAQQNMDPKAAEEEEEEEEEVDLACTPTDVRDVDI

Compound `c1ccc2c(c1)Sc1ccccc1N2CCN1CCOCC1` [J54] has a remaining binding (PIK3CA(H1047Y)) of 86%, a remaining binding (p38-beta) of 100% and a remaining binding (SYK) of 100%. It also gave a remaining binding (TEC) of 100%, a remaining binding (CDK9) of 100% and a remaining binding (PIP5K2C) of 100%. It also gave a remaining binding (NEK9) of 100%, a remaining binding (EGFR(G719S)) of 99% and a remaining binding (CSF1R) of 100%. The remaining binding [1] was 100%, the remaining binding (CDK4-cyclinD1) was 36% and the remaining binding (TNK2) was 100%. The remaining binding (CDC2L1) was 100%, the remaining binding [2] was 89% and the remaining binding (ERBB4) was 100%. For the same compound, the remaining binding (NEK2) was 100%, the remaining binding [3] was 100% and the remaining binding (NEK7) was 100%.
